{"source": "ChEMBL document CHEMBL1201862", "about": "“PubChem BioAssay data set” (2004)", "key": {"[1]": {"assay": "blockers of HIV-1 envelope-mediated cell-cell fusion – cherry-pick, dose response (AID 652057)", "type": "functional, cell-based"}, "[2]": {"assay": "off-target signal loss in HeLa-CEM21 co-culture – HeLa F-luc CTL cells, cherry-picked, counter-screen for HIV-1 Env fusion inhibitor project, dose response (AID 652040);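 further: potency for signal decrease marking cytotoxic or nonspecific inhibition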", "type": "functional, cell-based"}, "[3]": {"assay": "HIV-1 AD8 envelope cell-cell fusion blockers – cherry-pick, dose response (AID 652062);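 further: potency is for inhibitors of fusion seen as a drop in luminescence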", "type": "functional, cell-based"}, "[4]": {"assay": "blockers of HIV-1 ZM109 envelope-driven cell-cell fusion – HeLa effector, CEM target cells, luciferase, cherry-pick, dose response (AID 652058)", "type": "functional, cell-based"}, "HeLa": {"tested_on": "HeLa", "assay": "viability loss in HeLa cells – cell-based, ATP luminescence, cherry-pick samples, cytotoxicity control, dose response (AID 687004)", "type": "functional", "settings": "Homo sapiens"}, "Galanin receptor type 3": {"target": "T1, Galanin receptor type 3 (Homo sapiens, UniProt O60755)", "T1 sequence (O60755 whole entry)": "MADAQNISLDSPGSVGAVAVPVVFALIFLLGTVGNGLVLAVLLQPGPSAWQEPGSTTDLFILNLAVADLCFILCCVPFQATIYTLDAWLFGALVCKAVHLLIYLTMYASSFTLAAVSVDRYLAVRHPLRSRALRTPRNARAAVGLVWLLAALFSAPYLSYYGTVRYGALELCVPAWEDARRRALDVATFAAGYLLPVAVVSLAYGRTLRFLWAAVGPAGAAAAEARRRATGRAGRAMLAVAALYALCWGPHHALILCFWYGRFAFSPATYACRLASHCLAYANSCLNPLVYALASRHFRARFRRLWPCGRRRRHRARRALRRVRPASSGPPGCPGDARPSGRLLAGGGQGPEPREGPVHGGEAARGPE", "assay": "Fluorescence-based cell-based primary high throughput dose response assay to identify antagonists of the Galanin Receptor 3 (GalR3).", "type": "functional"}, "cells [5]": {"assay": "cells", "type": "functional, cell-based", "settings": "HEK-CNG"}, "[6]": {"target": "T2, Heat shock factor protein 1 (Mus musculus, UniProt P38532)", "T2 sequence (P38532 whole entry)": "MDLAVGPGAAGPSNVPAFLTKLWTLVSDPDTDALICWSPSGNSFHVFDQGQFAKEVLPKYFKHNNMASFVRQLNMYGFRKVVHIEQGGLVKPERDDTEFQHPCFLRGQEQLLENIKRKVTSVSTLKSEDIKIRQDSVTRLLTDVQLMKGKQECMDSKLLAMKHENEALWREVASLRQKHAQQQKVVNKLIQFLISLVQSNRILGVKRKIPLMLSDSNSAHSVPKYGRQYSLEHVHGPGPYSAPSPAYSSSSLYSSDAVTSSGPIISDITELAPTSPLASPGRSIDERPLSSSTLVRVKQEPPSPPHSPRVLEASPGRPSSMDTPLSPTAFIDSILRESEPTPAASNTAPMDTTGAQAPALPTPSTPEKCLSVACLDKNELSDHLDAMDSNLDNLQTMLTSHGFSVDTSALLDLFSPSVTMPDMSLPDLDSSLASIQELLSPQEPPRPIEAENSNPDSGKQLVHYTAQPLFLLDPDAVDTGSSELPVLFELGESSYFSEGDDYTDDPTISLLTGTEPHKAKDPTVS", "assay": "decrease of HSF1-responsive luciferase luminescence – cell-based, NIH3T3, dose retest, confirmation (AID 2382);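 further: NIH3T3 fibroblasts with HSF1-driven luciferase reporter stressed by proteasome inhibitor MG132; luminescence from HSF1-driven luciferase expression after 8 hours of MG132 stress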", "type": "functional"}, "cells [7]": {"assay": "cells", "type": "functional, cell-based"}, "[8]": {"target": "T3, Calpain-2 catalytic subunit (Sus scrofa, UniProt P43367)", "T3 sequence (P43367 whole entry)": "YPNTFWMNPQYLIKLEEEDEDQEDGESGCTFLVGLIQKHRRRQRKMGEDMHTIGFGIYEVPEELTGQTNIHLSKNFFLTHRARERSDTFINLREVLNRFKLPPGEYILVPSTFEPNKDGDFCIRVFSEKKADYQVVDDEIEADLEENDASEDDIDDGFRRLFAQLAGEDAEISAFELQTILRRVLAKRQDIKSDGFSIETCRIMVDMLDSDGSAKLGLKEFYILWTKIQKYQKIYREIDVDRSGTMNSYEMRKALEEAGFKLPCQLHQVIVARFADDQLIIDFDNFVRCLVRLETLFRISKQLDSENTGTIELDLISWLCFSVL", "assay": "m-calpain protease blockers, concentration series – biochemical, fluorogenic peptide substrate, dose response (AID 1420)", "type": "functional"}, "cells [9]": {"assay": "cells", "type": "functional, cell-based", "remark": "listed apart in the source"}, "[10]": {"assay": "viability loss in CEM21 cells – cell-based, CellTiter-Glo luminescence, cherry-picked, cytotoxicity control for viral fusion inhibitor project, dose response (AID 652042);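 further: potency for signal decrease meaning cytotoxicity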", "type": "functional"}, "[11]": {"assay": "general mammalian cell viability loss – inhibitor set, cherry-pick, set 2, cytotoxicity control for miR-122 modulator project, dose response (AID 720697)", "type": "functional, cell-based"}, "[12]": {"assay": "activation of miR-122 Renilla sensor silencing – cell-based, Huh7 psiCHECK-miR122, Renilla luciferase, cherry-picked, dose response (AID 651956);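 further: huh7 hepatoma cells stably carrying a psiCHECK-2 miR-122 sensor plasmid; renilla luciferase signal reporting endogenous miR-122 activity after 48 h compound exposure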", "type": "functional"}, "[13]": {"assay": "Trypanosoma cruzi growth suppression in host cells – NIH3T3 host cells, beta-gal luminescence, confirmation (AID 2044);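 further: intracellular parasites grown in NIH/3T3 mouse fibroblasts as host cells; luminescent beta-galactosidase reporter signal from transgenic T. cruzi replicating inside host cells; inhibitors lower the luminescence signal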", "type": "functional, cell-based"}, "[14]": {"target": "T4, DNA repair protein RAD52 homolog (Homo sapiens, UniProt P43351)", "T4 sequence (P43351 whole entry)": "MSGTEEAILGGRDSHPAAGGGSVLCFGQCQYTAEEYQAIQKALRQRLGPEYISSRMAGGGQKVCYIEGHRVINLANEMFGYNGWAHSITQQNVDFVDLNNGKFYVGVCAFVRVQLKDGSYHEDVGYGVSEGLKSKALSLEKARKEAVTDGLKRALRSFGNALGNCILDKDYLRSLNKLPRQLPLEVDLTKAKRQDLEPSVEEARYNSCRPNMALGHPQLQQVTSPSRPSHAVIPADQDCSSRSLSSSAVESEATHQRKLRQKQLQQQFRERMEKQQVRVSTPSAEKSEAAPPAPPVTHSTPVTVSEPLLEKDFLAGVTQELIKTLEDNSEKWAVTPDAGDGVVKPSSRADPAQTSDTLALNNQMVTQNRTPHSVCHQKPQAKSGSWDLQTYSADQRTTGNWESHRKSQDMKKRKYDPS", "type": "functional, biochemical"}, "[15]": {"target": "SWI/SNF-related matrix-associated actin-dependent regulator of chromatin subfamily A member 2 (Homo sapiens, UniProt P51531)", "sequence (P51531 whole entry)": "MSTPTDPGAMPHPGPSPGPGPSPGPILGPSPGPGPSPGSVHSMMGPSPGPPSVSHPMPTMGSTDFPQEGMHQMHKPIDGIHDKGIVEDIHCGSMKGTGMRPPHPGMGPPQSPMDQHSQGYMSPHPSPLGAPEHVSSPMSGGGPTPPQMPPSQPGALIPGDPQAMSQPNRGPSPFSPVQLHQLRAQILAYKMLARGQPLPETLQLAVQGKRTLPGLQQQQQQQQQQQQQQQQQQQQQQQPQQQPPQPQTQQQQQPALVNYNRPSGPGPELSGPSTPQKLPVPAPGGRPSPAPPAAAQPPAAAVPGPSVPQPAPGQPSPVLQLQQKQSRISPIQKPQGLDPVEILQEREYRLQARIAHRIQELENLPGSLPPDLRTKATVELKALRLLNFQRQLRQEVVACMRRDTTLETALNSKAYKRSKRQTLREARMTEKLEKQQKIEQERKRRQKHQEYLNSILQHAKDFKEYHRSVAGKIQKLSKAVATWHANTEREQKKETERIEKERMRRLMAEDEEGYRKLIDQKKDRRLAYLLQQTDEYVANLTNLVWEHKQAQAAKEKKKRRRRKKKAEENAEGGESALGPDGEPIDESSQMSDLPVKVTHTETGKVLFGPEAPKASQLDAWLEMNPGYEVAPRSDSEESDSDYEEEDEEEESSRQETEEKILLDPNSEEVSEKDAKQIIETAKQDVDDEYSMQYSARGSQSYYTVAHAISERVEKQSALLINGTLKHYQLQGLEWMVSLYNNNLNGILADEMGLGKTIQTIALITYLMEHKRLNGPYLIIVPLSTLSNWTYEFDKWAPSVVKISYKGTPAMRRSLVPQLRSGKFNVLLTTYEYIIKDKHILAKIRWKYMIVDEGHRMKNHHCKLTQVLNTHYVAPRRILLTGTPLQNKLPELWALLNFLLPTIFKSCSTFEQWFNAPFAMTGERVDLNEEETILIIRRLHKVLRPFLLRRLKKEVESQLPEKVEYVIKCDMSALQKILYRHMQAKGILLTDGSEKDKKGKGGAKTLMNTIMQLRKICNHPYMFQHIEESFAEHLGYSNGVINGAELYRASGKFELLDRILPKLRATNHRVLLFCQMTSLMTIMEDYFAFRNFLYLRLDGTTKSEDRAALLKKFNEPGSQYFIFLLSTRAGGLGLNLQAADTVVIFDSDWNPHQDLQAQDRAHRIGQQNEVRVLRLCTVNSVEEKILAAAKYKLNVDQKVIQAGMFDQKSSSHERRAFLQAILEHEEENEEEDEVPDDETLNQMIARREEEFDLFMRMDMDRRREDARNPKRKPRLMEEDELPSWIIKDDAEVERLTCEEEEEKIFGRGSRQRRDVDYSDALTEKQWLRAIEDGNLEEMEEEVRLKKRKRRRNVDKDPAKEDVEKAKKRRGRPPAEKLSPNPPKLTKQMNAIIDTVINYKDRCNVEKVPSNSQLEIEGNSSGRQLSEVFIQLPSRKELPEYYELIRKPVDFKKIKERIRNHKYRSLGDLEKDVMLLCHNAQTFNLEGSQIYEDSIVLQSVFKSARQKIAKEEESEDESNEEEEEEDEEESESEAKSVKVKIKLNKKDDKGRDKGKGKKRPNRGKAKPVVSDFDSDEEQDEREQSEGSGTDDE", "assay": "Luminescence-based cell-based high throughput dose response assay to identify activators of the function of SWI/SNF related, matrix associated, actin dependent regulator of chromatin, subfamily a, member 2 (SMARCA2, BRM).", "type": "functional"}, "[16]": {"assay": "NIH3T3 cell viability loss – ATP luminescence, mouse fibroblasts, counter-screen, dose response (AID 2010);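 further: cells exposed to compound for about 90 hours before reading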", "type": "functional, cell-based"}, "Aminopeptidase N": {"target": "T5, Aminopeptidase N (Plasmodium falciparum FcB1/Columbia, UniProt O96935)", "T5 sequence (O96935 whole entry)": "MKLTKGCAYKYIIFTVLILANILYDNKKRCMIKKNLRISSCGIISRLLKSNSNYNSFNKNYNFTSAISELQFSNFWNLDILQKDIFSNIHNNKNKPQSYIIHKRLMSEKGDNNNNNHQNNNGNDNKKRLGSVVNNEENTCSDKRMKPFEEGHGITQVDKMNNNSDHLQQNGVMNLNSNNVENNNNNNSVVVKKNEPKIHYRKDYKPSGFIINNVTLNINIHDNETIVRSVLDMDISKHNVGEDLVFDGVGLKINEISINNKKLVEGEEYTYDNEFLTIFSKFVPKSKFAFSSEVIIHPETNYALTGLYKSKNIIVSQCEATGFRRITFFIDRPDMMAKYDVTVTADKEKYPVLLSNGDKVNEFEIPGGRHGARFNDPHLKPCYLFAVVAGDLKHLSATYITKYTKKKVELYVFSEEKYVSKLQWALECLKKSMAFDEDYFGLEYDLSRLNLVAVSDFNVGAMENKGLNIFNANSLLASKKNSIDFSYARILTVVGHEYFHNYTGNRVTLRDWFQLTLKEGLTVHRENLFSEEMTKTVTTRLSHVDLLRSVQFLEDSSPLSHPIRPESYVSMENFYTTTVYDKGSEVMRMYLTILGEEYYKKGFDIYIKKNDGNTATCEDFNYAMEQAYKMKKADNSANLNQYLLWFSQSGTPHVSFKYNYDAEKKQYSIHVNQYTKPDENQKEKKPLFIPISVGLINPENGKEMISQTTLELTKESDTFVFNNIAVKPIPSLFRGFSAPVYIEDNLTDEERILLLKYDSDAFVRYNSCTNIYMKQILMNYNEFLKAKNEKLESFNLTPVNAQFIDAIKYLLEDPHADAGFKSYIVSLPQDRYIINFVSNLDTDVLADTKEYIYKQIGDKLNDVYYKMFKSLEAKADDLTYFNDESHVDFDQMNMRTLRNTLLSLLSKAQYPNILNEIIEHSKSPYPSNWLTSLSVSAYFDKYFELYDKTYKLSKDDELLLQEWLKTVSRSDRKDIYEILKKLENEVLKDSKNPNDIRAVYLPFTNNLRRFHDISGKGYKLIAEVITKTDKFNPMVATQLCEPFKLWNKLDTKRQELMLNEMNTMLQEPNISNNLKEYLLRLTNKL", "assay": "malaria alanyl aminopeptidase activity blockers – biochemical, fluorogenic H-Leu-NHMec substrate, 1536-well (AID 1445)", "parameters": "species or system Plasmodium falciparum 3D7, 3D7"}, "[17]": {"assay": "Counterscreen for activators of the function of SWI/SNF related, matrix associated, actin dependent regulator of chromatin, subfamily a, member 2 (SMARCA2, BRM): Luminescence-based cell-based high throughput dose response assay to identify non-selective compounds using the VP16 reporter assay.", "type": "functional"}}, "note": "The source made the active and inactive calls.", "data": [{"smiles": "COc1ccc(Cn2nnnc2C(c2cc3cccc(C)c3nc2O)N2CCOCC2)cc1", "note": "(stereo unspecified)", "values": [{"measurement": "AC50", "setting": "[1]", "result": "6.52 µM (active)"}, {"measurement": "AC50", "setting": "[2]", "result": "7.1 µM (active)"}, {"measurement": "AC50", "setting": "[3]", "result": "6.17 µM (active)"}, {"measurement": "AC50", "setting": "[4]", "result": "5.44 µM (active)"}]}, {"smiles": "COC(=O)C1=C(C)N(Cc2ccccc2)C(=S)N[C@H]1c1cccc(C(F)(F)F)c1", "values": [{"measurement": "AC50", "setting": "HeLa", "result": "> 52 µM (inactive)"}]}, {"smiles": "COc1cc(CCC(=O)OCC(=O)Nc2sccc2C(N)=O)cc(OC)c1OC", "values": [{"measurement": "IC50", "setting": "Galanin receptor type 3", "result": "1.55 µM (active)"}, {"measurement": "EC50", "setting": "cells [5]", "result": "> 29.9 µM (inactive)"}]}, {"smiles": "N#Cc1c(N)nc2c3c(sc(=N)c2c1N)NC(=O)CC3c1ccccc1", "note": "(stereo unspecified)", "values": [{"measurement": "IC50", "setting": "Galanin receptor type 3", "result": "> 29.9 µM (inactive)"}, {"measurement": "EC50", "setting": "[6]", "result": "> 195 µM (not active)"}, {"measurement": "EC50", "setting": "cells [5]", "result": "> 29.9 µM (inactive)"}]}, {"smiles": "O=C(NCCc1ccccc1)c1cnc2n(c1=O)CCS2", "values": [{"measurement": "EC50", "setting": "cells [7]", "result": "> 29.9 µM (inactive)"}, {"measurement": "IC50", "setting": "[8]", "result": "24.2 µM (not active)"}, {"measurement": "IC50", "setting": "cells [9]", "result": "> 29.9 µM (inactive)"}]}, {"smiles": "NC(c1csc(NC(=O)Nc2cccc(Cl)c2)n1)c1ccccc1Cl", "note": "(stereo unspecified)", "values": [{"measurement": "AC50", "setting": "[1]", "result": "11.9 µM (active)"}, {"measurement": "AC50", "setting": "[2]", "result": "29.4 µM (active)"}, {"measurement": "AC50", "setting": "[10]", "result": "16.4 µM (active)"}, {"measurement": "AC50", "setting": "[3]", "result": "28.5 µM (active)"}, {"measurement": "AC50", "setting": "[4]", "result": "16.2 µM (active)"}]}, {"smiles": "C[C@@H]1CN([C@@H](C)CO)S(=O)(=O)c2ccc(-c3ccc(C(=O)N(C)C)cc3)cc2O[C@@H]1CN(C)C(=O)C1CCC1", "values": [{"measurement": "AC50", "setting": "[11]", "result": "0.516 µM (active)"}, {"measurement": "AC50", "setting": "[12]", "result": "13.8 µM (active)"}]}, {"smiles": "Cc1nc(NC(=N)N)nc2c(C)cccc12", "values": [{"measurement": "EC50", "setting": "[13]", "result": "0.371 µM (active)"}, {"measurement": "AC50", "setting": "[14]", "result": "1.4 µM (active)"}, {"measurement": "EC50", "setting": "[15]", "result": "> 10.1 µM (inactive)"}, {"measurement": "EC50", "setting": "[16]", "result": "> 60 µM (not active)"}, {"measurement": "IC50", "setting": "Aminopeptidase N", "result": "47.6 µM (active)"}, {"measurement": "EC50", "setting": "[17]", "result": "> 91.1 µM (inactive)"}]}]}
